In ChEMBL document CHEMBL3286379, “Design and synthesis of pyrimidine molecules endowed with thiazolidin-4-one as new anticancer agents” (Eur J Med Chem, 2014):

Experiments:
Format in all cases: functional
[1] = system: CCRF-CEM; test: Growth inhibition of human CCRF-CEM cells after 48 hrs by sulforhodamine B assay
[2] = system: HL-60(TB); test: Growth inhibition of human HL-60(TB) cells after 48 hrs by sulforhodamine B assay; settings: HL-60, 48 h
[3] = system: A549; test: Growth inhibition of human A549/ATCC cells after 48 hrs by sulforhodamine B assay; settings: A549, 48 h
[4] = Growth inhibition of human HOP92 cells after 48 hrs by sulforhodamine B assay; settings: HOP-92, 48 h
[5] = system: NCI-H226; test: Growth inhibition of human NCI-H226 cells after 48 hrs by sulforhodamine B assay; settings: NCI-H226, 48 h
[6] = system: NCI-H23; test: Growth inhibition of human NCI-H23 cells after 48 hrs by sulforhodamine B assay; settings: NCI-H23, 48 h
[7] = system: NCI-H322M; test: Growth inhibition of human NCI-H322M cells after 48 hrs by sulforhodamine B assay
[8] = system: COLO 205; test: Growth inhibition of human COLO205 cells after 48 hrs by sulforhodamine B assay; settings: COLO 205, 48 h
[9] = system: KM12; test: Growth inhibition of human KM12 cells after 48 hrs by sulforhodamine B assay; settings: KM12, 48 h
[10] = Growth inhibition of human LOXIMVI cells after 48 hrs by sulforhodamine B assay; settings: LOX IMVI
[11] = system: Malme-3M; test: Growth inhibition of human MALME-3M cells after 48 hrs by sulforhodamine B assay
[12] = system: M14; test: Growth inhibition of human M14 cells after 48 hrs by sulforhodamine B assay; settings: M14, 48 h
[13] = system: SK-MEL-5; test: Growth inhibition of human SK-MEL-5 cells after 48 hrs by sulforhodamine B assay; settings: SK-MEL-5, 48 h
[14] = Growth inhibition of human UACC257 cells after 48 hrs by sulforhodamine B assay; settings: UACC-257, 48 h
[15] = system: IGROV-1; test: Growth inhibition of human IGROV1 cells after 48 hrs by sulforhodamine B assay; settings: IGROV-1, 48 h
[16] = Growth inhibition of human OVCAR4 cells after 48 hrs by sulforhodamine B assay; settings: OVCAR-4, 48 h
[17] = system: A498; test: Growth inhibition of human A498 cells after 48 hrs by sulforhodamine B assay; settings: A498, 48 h
[18] = system: CAKI-1; test: Growth inhibition of human CAKI-1 cells after 48 hrs by sulforhodamine B assay; settings: CAKI-1, 48 h
[19] = system: PC-3; test: Growth inhibition of human PC3 cells after 48 hrs by sulforhodamine B assay; settings: PC-3, 48 h
[20] = Growth inhibition of human Hs 578T cells after 48 hrs by sulforhodamine B assay
[21] = Growth inhibition of human BT549 cells after 48 hrs by sulforhodamine B assay; settings: BT-549, 48 h
[22] = read-out: LC50 (the source's name)
[23] = read-out: pLC50 (the source's name) (converted)

For `Nc1nc(-c2ccccc2Cl)cc(-c2ccc(Cl)cc2Cl)n1`, the GI50 ([1]; read-out: GI50) was 4.17 µM, the CC50 [1, 22] was > 100 µM and the TGI ([1]; read-out: TGI) was > 100 µM. For the same compound, the GI50 ([1]; read-out: pGI50 (converted)) was 4.17 µM, the CC50 [1, 23] was > 100 µM and the TGI ([1]; read-out: pTGI) was > 100 µM. For the same compound, the GI50 ([2]; read-out: GI50) was 3.14 µM, the CC50 [2, 22] was > 100 µM and the TGI ([2]; read-out: TGI) was 17.3 µM. The GI50 ([2]; read-out: pGI50 (converted)) was 3.16 µM, the CC50 [2, 23] was > 100 µM and the TGI ([2]; read-out: pTGI (converted)) was 17.4 µM. For the same compound, the GI50 ([3]; read-out: GI50) was 4.81 µM, the CC50 [3, 22] was > 100 µM and the TGI ([3]; read-out: TGI) was > 100 µM. The GI50 ([3]; read-out: pGI50 (converted)) was 4.79 µM, the CC50 [3, 23] was > 100 µM and the TGI ([3]; read-out: pTGI) was > 100 µM. The GI50 ([4]; read-out: GI50) was 0.527 µM, the CC50 [4, 22] was > 100 µM and the TGI ([4]; read-out: TGI) was 7.62 µM. The GI50 ([4]; read-out: pGI50 (converted)) was 0.525 µM, the CC50 [4, 23] was > 100 µM and the TGI ([4]; read-out: pTGI (converted)) was 7.59 µM. The GI50 ([5]; read-out: GI50) was 81.1 µM, the CC50 [5, 22] was > 100 µM and the TGI ([5]; read-out: TGI) was > 100 µM. The GI50 ([5]; read-out: pGI50 (converted)) was 18.2 µM, the CC50 [5, 23] was > 100 µM and the TGI ([5]; read-out: pTGI) was > 100 µM. The GI50 ([6]; read-out: GI50) was 12.3 µM, the CC50 [6, 22] was > 100 µM and the TGI ([6]; read-out: TGI) was > 100 µM. The GI50 ([6]; read-out: pGI50 (converted)) was 12.3 µM, the CC50 [6, 23] was > 100 µM and the TGI ([6]; read-out: pTGI) was > 100 µM. For the same compound, the GI50 ([7]; read-out: GI50) was 31.2 µM, the CC50 [7, 22] was > 100 µM and the TGI ([7]; read-out: TGI) was > 100 µM. The GI50 ([7]; read-out: pGI50 (converted)) was 30.9 µM, the CC50 [7, 23] was > 100 µM and the TGI ([7]; read-out: pTGI) was > 100 µM. It also gave a GI50 ([8]; read-out: GI50) of 3.52 µM, a CC50 [8, 22] of 53 µM and a TGI ([8]; read-out: TGI) of 15.5 µM. It also gave a GI50 ([8]; read-out: pGI50 (converted)) of 3.55 µM, a CC50 [8, 23] of 52.5 µM and a TGI ([8]; read-out: pTGI (converted)) of 15.5 µM. The GI50 ([9]; read-out: GI50) was 4.1 µM, the CC50 [9, 22] was > 100 µM and the TGI ([9]; read-out: TGI) was 31.3 µM. The GI50 ([9]; read-out: pGI50 (converted)) was 4.07 µM, the CC50 [9, 23] was > 100 µM and the TGI ([9]; read-out: pTGI (converted)) was 30.9 µM. For the same compound, the GI50 ([10]; read-out: GI50) was 4.89 µM, the CC50 [10, 22] was > 100 µM and the TGI ([10]; read-out: TGI) was > 100 µM. The GI50 ([10]; read-out: pGI50 (converted)) was 4.9 µM, the CC50 [10, 23] was > 100 µM and the TGI ([10]; read-out: pTGI) was > 100 µM. The GI50 ([11]; read-out: GI50) was 17.7 µM, the CC50 [11, 22] was > 100 µM and the TGI ([11]; read-out: TGI) was > 100 µM. The GI50 ([11]; read-out: pGI50 (converted)) was 17.8 µM, the CC50 [11, 23] was > 100 µM and the TGI ([11]; read-out: pTGI) was > 100 µM. The GI50 ([12]; read-out: GI50) was 5.95 µM, the CC50 [12, 22] was > 100 µM and the TGI ([12]; read-out: TGI) was > 100 µM. The GI50 ([12]; read-out: pGI50 (converted)) was 5.89 µM, the CC50 [12, 23] was > 100 µM and the TGI ([12]; read-out: pTGI) was > 100 µM. For the same compound, the GI50 ([13]; read-out: GI50) was 4.78 µM, the CC50 [13, 22] was 71.1 µM and the TGI ([13]; read-out: TGI) was 20.8 µM. For the same compound, the GI50 ([13]; read-out: pGI50 (converted)) was 4.79 µM, the CC50 [13, 23] was 70.8 µM and the TGI ([13]; read-out: pTGI (converted)) was 20.9 µM. For the same compound, the GI50 ([14]; read-out: GI50) was 11.9 µM, the CC50 [14, 22] was > 100 µM and the TGI ([14]; read-out: TGI) was 55.2 µM. For the same compound, the GI50 ([14]; read-out: pGI50 (converted)) was 11.7 µM, the CC50 [14, 23] was > 100 µM and the TGI ([14]; read-out: pTGI (converted)) was 55 µM. For the same compound, the GI50 ([15]; read-out: GI50) was 12.3 µM, the CC50 [15, 22] was > 100 µM and the TGI ([15]; read-out: TGI) was > 100 µM. For the same compound, the GI50 ([15]; read-out: pGI50 (converted)) was 12.3 µM, the CC50 [15, 23] was > 100 µM and the TGI ([15]; read-out: pTGI) was > 100 µM. For the same compound, the GI50 [16] was 12 µM, the CC50 [16, 22] was > 100 µM and the CC50 [16, 23] was > 100 µM. The TGI ([16]; read-out: pTGI (converted)) was 89.1 µM, the GI50 ([17]; read-out: GI50) was 3.34 µM and the CC50 [17, 22] was > 100 µM. For the same compound, the TGI ([17]; read-out: TGI) was 22.8 µM, the GI50 ([17]; read-out: pGI50 (converted)) was 3.31 µM and the CC50 [17, 23] was > 100 µM. The TGI ([17]; read-out: pTGI (converted)) was 22.9 µM, the GI50 ([18]; read-out: GI50) was 9.27 µM and the CC50 [18, 22] was > 100 µM. The TGI ([18]; read-out: TGI) was > 100 µM, the GI50 ([18]; read-out: pGI50 (converted)) was 9.33 µM and the CC50 [18, 23] was > 100 µM. For the same compound, the TGI ([18]; read-out: pTGI) was > 100 µM, the GI50 ([19]; read-out: GI50) was 5.43 µM and the CC50 [19, 22] was > 100 µM. The TGI ([19]; read-out: TGI) was > 100 µM, the GI50 ([19]; read-out: pGI50 (converted)) was 5.37 µM and the CC50 [19, 23] was > 100 µM. For the same compound, the TGI ([19]; read-out: pTGI) was > 100 µM, the GI50 ([20]; read-out: GI50) was 6.04 µM and the CC50 [20, 22] was > 100 µM. The TGI ([20]; read-out: TGI) was 60.7 µM, the GI50 ([20]; read-out: pGI50 (converted)) was 6.03 µM and the CC50 [20, 23] was > 100 µM. For the same compound, the TGI ([20]; read-out: pTGI (converted)) was 60.3 µM, the GI50 ([21]; read-out: GI50) was 13.8 µM and the CC50 [21, 22] was > 100 µM. For the same compound, the TGI ([21]; read-out: TGI) was > 100 µM, the GI50 ([21]; read-out: pGI50 (converted)) was 13.8 µM and the CC50 [21, 23] was > 100 µM. For the same compound, the TGI ([21]; read-out: pTGI) was > 100 µM.
